Test results published in patent US20250163029A1, “PYRIDONE OR PYRIMIDONE DERIVATIVE AND APPLICATION THEREOF” (Medshine Discovery Inc., priority 2022, published 2025).
Counter-ions that a name gives are not always drawn.

Key:
[1] = test system: coronavirus OC43; experiment: Efficacy on suckling mice infected with coronavirus; format: in vivo, Suckling mice (C57BL6/J strain); conditions: intraperitoneal, once a day day 0 to day 6
Procedure: Objective of assay: The in vivo antiviral activity of the compound against coronavirus was evaluated by observing the percentage of weight change and survival rate of the assay animals in a suckling mouse model infected with coronavirus (COV). The mouse infection model is widely used to determine the protective effect of the compound on virus-infected animals to reflect the antiviral activity of the compound.
Suckling mice (C57BL6/J strain) were inoculated with virus (coronavirus OC43) by intranasal drops on day 0, with an inoculation dose of 3500 p.f.u./mouse. From day 0 to day 6, the mice were treated with a vehicle (5% DMSO+40% polyethylene glycol 400+55% water) or 12.5 mpk or 25 mpk of the compound of the present disclosure for 7 consecutive days, once a day, by intraperitoneal injection, for a total of 7 times, with the first administration time being 2 hours before virus inoculation. The animals were continuously observed from day 0 to day 14, and the body weight, health and survival status were recorded.

[2] = test system: plasma protein; experiment: Plasma protein binding rate (PPB), humans; format: in vitro ADME; conditions: Human plasma, 2 μM, 4 hours dialysis
Procedure: (§1) 597 μL of blank plasma from CD-1 mice, SD rats, beagle dogs, cynomolgus monkeys and humans were weighed, and the working solution of the assay compound or the working solution of warfarin was added, so that the final concentration of the assay compound and warfarin in the plasma sample was 2 μM. The samples were mixed thoroughly. The final concentration of DMSO as an organic phase was 0.5%; 50 μL of the assay compound and warfarin plasma samples were pipetted into a sample receiving plate, and the corresponding volume of blank plasma or buffer was immediately added, so that the final volume of each sample well was 100 μL, and the volume ratio of plasma:dialysis buffer was 1:1, and then the stop solution was added to these samples. The samples were used as the To sample for recovery and stability determination. The assay compound and warfarin plasma samples were added to the dosing end of each dialysis well, and blank dialysis buffer was added to the receiving end corresponding to the dialysis well. Then the dialysis plate was sealed with a gas permeable membrane and placed in a humidified 5% CO2 incubator, and incubated with shaking at 37° C. and 100 rpm for 4 hours. […] After protein precipitation, all samples were analyzed by LC/MS/MS, and the free rate (% Unbound) of the compound was calculated by the following formula: […]

[3] = Pharmacokinetic (PK) assay in mice; format: in vivo, C57BL6/J strain mice; conditions: C57BL6/J, plasma; for AUC: mouse
Procedure: (§2) Objective of assay: The druggability of compounds was evaluated by measuring their pharmacokinetic properties in different animal species.
(§3) Assay Materials: C57BL6/J strain mice, Sprague-Dawley strain rats and beagle dogs.
(§4) The pharmacokinetic characteristics of the compound after intravenous and oral administration were assayed in animals using a standard protocol. In the assay, the candidate compound was prepared into a clear solution (intravenous injection) or a homogeneous suspension (oral administration) and administrated to the animal once. Whole blood samples were collected within 24 hours, and centrifuged at 3200 g for 10 minutes. The supernatant was separated to obtain a plasma sample. The blood concentration was quantitatively analyzed by LC-MS/MS analysis method, and pharmacokinetic parameters such as peak concentration, time to peak, clearance rate, half-life, and area under the drug-time curve were calculated.

[4] = test system: novel coronavirus βCoV/KOR/KCDC03/2020 strain; experiment: In vitro anti-novel coronavirus activity in Vero cells; format: cell-based, SARS-CoV-2; conditions: Severe acute respiratory syndrome coronavirus 2, Vero, 24 h
[5] = in vivo; set-up: species or system Sprague-Dawley strain rats; conditions: Sprague-Dawley, rat
Procedure: as §2, §3, §4

[6] = test system: plasma protein; experiment: Plasma protein binding rate (PPB), beagle dogs; format: in vitro ADME; conditions: 2 μM, 4 hours dialysis
Procedure: as §1

Compound: Cn1cnc(Cc2cn(Cc3cc(F)c(F)cc3F)c(Nc3cc4cn(C)nc4cc3Cl)nc2=O)n1 [Compound 4 hydrochloride]
- Survival rate ([1]; 12.5 mpk, Day 1): 100%
- Weight changes (Percent of starting body weight) ([1]; 12.5 mpk, Day 1): 5.35 ± 0.58% of starting body weight
- Survival rate ([1]; 12.5 mpk, Day 2): 100%
- Weight changes (Percent of starting body weight) ([1]; 12.5 mpk, Day 2): 14.57 ± 1.37% of starting body weight
- Survival rate ([1]; 12.5 mpk, Day 3): 100%
- Weight changes (Percent of starting body weight) ([1]; 12.5 mpk, Day 3): 22.55 ± 1.37% of starting body weight
- Survival rate ([1]; 12.5 mpk, Day 4): 100%
- Weight changes (Percent of starting body weight) ([1]; 12.5 mpk, Day 4): 30.95 ± 1.19% of starting body weight
- Survival rate ([1]; 12.5 mpk, Day 5): 100%
- Weight changes (Percent of starting body weight) ([1]; 12.5 mpk, Day 5): 39.15 ± 1.15% of starting body weight
- Survival rate ([1]; 12.5 mpk, Day 6): 100%
- Weight changes (Percent of starting body weight) ([1]; 12.5 mpk, Day 6): 42.61 ± 1.80% of starting body weight
- Survival rate ([1]; 12.5 mpk, Day 7): 100%
- Weight changes (Percent of starting body weight) ([1]; 12.5 mpk, Day 7): 49.30 ± 2.16% of starting body weight
- Survival rate ([1]; 12.5 mpk, Day 8): 100%
- Weight changes (Percent of starting body weight) ([1]; 12.5 mpk, Day 8): 55.56 ± 2.05% of starting body weight
- Survival rate ([1]; 12.5 mpk, Day 9): 100%
- Weight changes (Percent of starting body weight) ([1]; 12.5 mpk, Day 9): 57.80 ± 4.27% of starting body weight
- Survival rate ([1]; 12.5 mpk, Day 10): 100%
- Weight changes (Percent of starting body weight) ([1]; 12.5 mpk, Day 10): 60.74 ± 6.34% of starting body weight
- Survival rate ([1]; 12.5 mpk, Day 11): 100%
- Weight changes (Percent of starting body weight) ([1]; 12.5 mpk, Day 11): 60.39 ± 8.87% of starting body weight
- Survival rate ([1]; 12.5 mpk, Day 12): 100%
- Weight changes (Percent of starting body weight) ([1]; 12.5 mpk, Day 12): 65.10 ± 10.85% of starting body weight
- Survival rate ([1]; 12.5 mpk, Day 13): 100%
- Weight changes (Percent of starting body weight) ([1]; 12.5 mpk, Day 13): 76.18 ± 9.69% of starting body weight
- Survival rate ([1]; 12.5 mpk, Day 14): 100%
- Weight changes (Percent of starting body weight) ([1]; 12.5 mpk, Day 14): 96.72 ± 10.96% of starting body weight
- Survival rate ([1]; 25 mpk, Day 1): 100%
- Weight changes (Percent of starting body weight) ([1]; 25 mpk, Day 1): 6.45 ± 1.94% of starting body weight
- Survival rate ([1]; 25 mpk, Day 2): 100%
- Weight changes (Percent of starting body weight) ([1]; 25 mpk, Day 2): 12.35 ± 1.74% of starting body weight
- Survival rate ([1]; 25 mpk, Day 3): 100%
- Weight changes (Percent of starting body weight) ([1]; 25 mpk, Day 3): 22.61 ± 2.41% of starting body weight
- Survival rate ([1]; 25 mpk, Day 4): 100%
- Weight changes (Percent of starting body weight) ([1]; 25 mpk, Day 4): 28.78 ± 2.69% of starting body weight
- Survival rate ([1]; 25 mpk, Day 5): 100%
- Weight changes (Percent of starting body weight) ([1]; 25 mpk, Day 5): 34.72 ± 2.23% of starting body weight
- Survival rate ([1]; 25 mpk, Day 6): 100%
- Weight changes (Percent of starting body weight) ([1]; 25 mpk, Day 6): 39.95 ± 2.01% of starting body weight
- Survival rate ([1]; 25 mpk, Day 7): 100%
- Weight changes (Percent of starting body weight) ([1]; 25 mpk, Day 7): 45.35 ± 2.00% of starting body weight
- Survival rate ([1]; 25 mpk, Day 8): 100%
- Weight changes (Percent of starting body weight) ([1]; 25 mpk, Day 8): 49.97 ± 1.91% of starting body weight
- Survival rate ([1]; 25 mpk, Day 9): 100%
- Weight changes (Percent of starting body weight) ([1]; 25 mpk, Day 9): 55.69 ± 2.31% of starting body weight
- Survival rate ([1]; 25 mpk, Day 10): 100%
- Weight changes (Percent of starting body weight) ([1]; 25 mpk, Day 10): 62.00 ± 2.26% of starting body weight
- Survival rate ([1]; 25 mpk, Day 11): 100%
- Weight changes (Percent of starting body weight) ([1]; 25 mpk, Day 11): 72.13 ± 3.02% of starting body weight
- Survival rate ([1]; 25 mpk, Day 12): 100%
- Weight changes (Percent of starting body weight) ([1]; 25 mpk, Day 12): 87.49 ± 3.63% of starting body weight
- Survival rate ([1]; 25 mpk, Day 13): 100%
- Weight changes (Percent of starting body weight) ([1]; 25 mpk, Day 13): 95.42 ± 4.90% of starting body weight
- Survival rate ([1]; 25 mpk, Day 14): 100%
- Weight changes (Percent of starting body weight) ([1]; 25 mpk, Day 14): 118.37 ± 5.15% of starting body weight
- PPB_Unbound (%) [2]: 24.3%
- AUC ([3]; iv, 1 mg/kg, IV, 1 mpk, read-out: AUC): 32.8 µM·h
- AUC ([3]; iv, 1 mg/kg, IV, 1 mpk, read-out: AUCfree): 0.92 µM·h
- AUC ([3]; po, 5 mg/kg, PO, 5 mpk, read-out: AUC): 145 µM·h
- AUC ([3]; po, 5 mg/kg, PO, 5 mpk, read-out: AUCfree): 4.1 µM·h
- Vd ([3]; 1 mg/kg, Mouse, IV, 1 mpk): 0.23 L/kg
- clearance ([3]; 1 mg/kg, Mouse, IV, 1 mpk): 0.98 mL/min/kg
- half-life ([3]; 1 mg/kg, Mouse, IV, 1 mpk): 156 min
- Cmax ([3]; 5 mg/kg, Mouse, PO, 5 mpk): 31 µM
- Tmax ([3]; 5 mg/kg, Mouse, PO, 5 mpk): 45 min
- bioavailability ([3]; 5 mg/kg, Mouse, PO, 5 mpk): 88%
- half-life ([3]; 5 mg/kg, Mouse, PO, 5 mpk): 162 min
- EC50 [4]: 52 nM
- Vd ([5]; iv, 0.25 mg/kg): 0.62 L/kg
- clearance ([5]; iv, 0.25 mg/kg): 4.1 mL/min/kg
- half-life ([5]; iv, 0.25 mg/kg): 132 min
- AUC ([5]; iv, 0.25 mg/kg, AUC): 2.4 µM·h
- AUC ([5]; iv, 0.25 mg/kg, AUCfree): 0.11 µM·h
- Cmax ([5]; po, 0.5 mg/kg): 530 nM
- Tmax ([5]; po, 0.5 mg/kg): 2 h
- bioavailability ([5]; po, 0.5 mg/kg): 103%
- half-life ([5]; po, 0.5 mg/kg): 204 min
- AUC ([5]; po, 0.5 mg/kg, AUC): 4.8 µM·h
- AUC ([5]; po, 0.5 mg/kg, AUCfree): 0.22 µM·h
- PPB_Unbound (%) [6]: 23.9%
